Results published in paper PMC6153434, “Bystander Effects of Hypoxia-Activated Prodrugs: Agent-Based Modeling Using Three Dimensional Cell Cultures” (Frontiers in Pharmacology, 2018).

Tests used:
[1] = pH 7.4
[2] = system: POR-R cells; assay: LC-MS/MS assay for PR104A metabolites in anoxic cultures; type: in vitro ADME; details: 100 μM PR104A, 3 h, anoxia
Method: POR-R cells (10^6 cells/0.5 mL) in 24-well plates were exposed to 100 μM PR104A under anoxia for 3 h. Plates were centrifuged (216 × g, 4°C, 8 min) extracellular medium was removed and proteins precipitated with an equal volume of ice-cold methanol. Cold methanol (100 μL) was then added to each well to extract intracellular PR104A and metabolites. Samples were stored at -80°C, then thawed, centrifuged (13,000 × g, 5 min, 4°C), diluted with two volumes of ammonium formate buffer (4.5 mM, pH 4.5) and analyzed with an Agilent LC-MS/MS (model 6460) using an electrospray ionization/atmospheric pressure chemical ionization multimode source and photodiode array absorbance detector as described previously ([Patel et al., 2007]).

[3] = system: HCT116 and HCT116/POR#6; details: published value; PR104H+M model; ref Foehrenbacher et al., 2013; cited from earlier work
[4] = ref Hicks et al., 2010; Wang et al., 2014; Gu et al., 2017; cited from earlier work
[5] = Stability in culture medium at 37°C by LC-MS/MS
[6] = system: SiHa cells
[7] = system: HCT116 cells; details: cited from earlier work
[8] = system: high-POR 'activator' HCT116 cell lines (POR-R, POR-G); type: cell-based
[9] = system: POR-R activators and PORko-G targets (HCT116); assay: SN30000 'no bystander effect' agent-based model parameters; details: ABM parameter
[10] = system: anoxic MCLs of POR-R activators and PORko-G targets; details: 100 μM in donor; differing proportions of POR-R activators
[11] = system: POR-null 'target' HCT116 cells in spheroids; type: cell-based
[12] = published value, ref Hicks et al., 2010
[13] = published value, ref Mao et al., 2018

Row | SMILES | Measured logD7.4 [1] | further results
1 | O=C(NCCCO)c1cc([N+](=O)[O-])cc([N+](=O)[O-])c1N(CCCl)CCCl [IV Cl Cl (CH2)3OH] | 2 | –
2 | NC(=O)c1cc([N+](=O)[O-])cc([N+](=O)[O-])c1N(CCBr)CCBr [IV Br Br H] | 2.63 | –
3 | CS(=O)(=O)OCCN(CCCl)c1c(C(N)=O)cc([N+](=O)[O-])cc1[N+](=O)[O-] [IV Cl OSO2CH3 H] | 1.02 | –
4 | NC(=O)c1cc(NO)cc([N+](=O)[O-])c1N(CCCl)CCCl [V Cl Cl H] | 2.19 | –
5 | Nc1cc(C(=O)NCCO)c(N(CCCl)CCCl)c([N+](=O)[O-])c1 [Metabolite B] | – | extracellular concentration relative to PR104H ([2]; P = 0.02): fivefold higher
6 | O=C(NCC(O)CO)c1cc(N(CCCl)CCCl)c([N+](=O)[O-])cc1[N+](=O)[O-] (stereo not shown) [I Cl Cl CH2CHOHCH2OH] | 0.93 | –
7 | O=C(NCCO)c1cc([N+](=O)[O-])cc([N+](=O)[O-])c1N(CCBr)CCBr [IV Br Br CH2CH2OH] | 2.33 | –
8 | CS(=O)(=O)OCCN(CCBr)c1c(C(=O)NCCO)cc(NO)cc1[N+](=O)[O-] [PR104H] | – | Kc, intrinsic cytotoxic potency [3]: 92 M⁻¹ s⁻¹; intracellular metabolite profile [2]: major intracellular metabolite
9 | [O-][n+]1nc(CCCN2CCOCC2)nc2cc3c(cc21)CCC3 [1-oxide] | – | cytotoxicity of downstream metabolites of SN30000 [4]: non-cytotoxic
10 | O=C(NCC(O)CO)c1cc(N(CCBr)CCBr)c([N+](=O)[O-])cc1[N+](=O)[O-] (stereo not shown) [I Br Br CH2CHOHCH2OH] | 1.25 | –
11 | O=C(NCCCO)c1cc(N(CCBr)CCBr)c([N+](=O)[O-])cc1[N+](=O)[O-] [I Br Br (CH2)3OH] | 1.81 | –
12 | NC(=O)c1cc([N+](=O)[O-])cc([N+](=O)[O-])c1N(CCI)CCI [IV Iodo Iodo H] | 3.08 | –
13 | NC(=O)c1cc(N(CCCl)CCBr)c([N+](=O)[O-])cc1[N+](=O)[O-] [I Cl Br H] | 1.61 | –
14 | NC(=O)c1cc(N(CCBr)CCBr)c([N+](=O)[O-])cc1[N+](=O)[O-] [I Br Br H] | 1.97 | –
15 | O=C(NCCO)c1cc(N(CCCl)CCCl)c([N+](=O)[O-])cc1[N+](=O)[O-] [I Cl Cl CH2CH2OH] | 1.315 | –
16 | CS(=O)(=O)OCCN(CCBr)c1c(C(=O)NCCO)cc([N+](=O)[O-])cc1[N+](=O)[O-] [IV Br OSO2CH3 CH2CH2OH] | 1.01 | –
17 | CS(=O)(=O)OCCN(CCI)c1cc(C(N)=O)c([N+](=O)[O-])cc1[N+](=O)[O-] [I Iodo OSO2CH3 H] | 0.743 | –
18 | CS(=O)(=O)OCCN(CCBr)c1cc(C(=O)NCCO)c([N+](=O)[O-])cc1[N+](=O)[O-] [I Br OSO2CH3 CH2CH2OH] | 0.461 | –
19 | CS(=O)(=O)OCCN(CCBr)c1cc(C(=O)NCC(O)CO)c([N+](=O)[O-])cc1[N+](=O)[O-] (stereo not shown) [I Br OSO2CH3 CH2CHOHCH2OH] | -0.0453 | –
20 | CS(=O)(=O)OCCN(CCBr)c1cc(C(N)=O)c([N+](=O)[O-])cc1[N+](=O)[O-] [I Br OSO2CH3 H] | 0.493 | –
21 | O=C(NCCO)c1cc(NO)cc([N+](=O)[O-])c1N(CCCl)CCCl [Metabolite A, 2-(Bis(2-chloroethyl)amino)-5-(hydroxyamino)-N-(2-hydroxyethyl)-3-nitrobenzamide] | – | half-life in culture medium relative to PR104H [5]: fourfold longer half-life; cytotoxic potency relative to PR104H [6]: lower cytotoxic potency
22 | NC(=O)c1cc(N(CCO)CCO)c([N+](=O)[O-])cc1N [III OH OH H] | -0.445 | –

Row | SMILES | Measured logD7.4 [1] | further results
23 | NC(=O)c1cc(N(CCI)CCI)c([N+](=O)[O-])cc1[N+](=O)[O-] [I Iodo Iodo H] | 2.408 | –
24 | CS(=O)(=O)OCCN(CCBr)c1c(C(N)=O)cc([N+](=O)[O-])cc1[N+](=O)[O-] [IV Br OSO2CH3 H] | 1.23 | –
25 | c1c2c(cc3nc(CCCN4CCOCC4)nnc13)CCC2 [nor-oxide] | – | cytotoxicity of downstream metabolites of SN30000 [4]: non-cytotoxic
26 | [O-][n+]1nc(CCCN2CCOCC2)[n+]([O-])c2cc3c(cc21)CCC3 [SN30000] | – | Half-life, non-enzymatic loss in culture medium ([7]; 37 °C, published value, ref Mao et al., 2018): 1000 days; Hill parameter n ([7]; oxygen dependence of metabolism, published value, ref Mao et al., 2018): 1.7; Kmet,0, rate constant for the maximum rate of metabolism under anoxia ([7]; parental HCT116 cells (listed as Target Kmet,0 published value), ref Mao et al., 2018): 1.88 min⁻¹; F2, proportion of O2-dependent metabolism of the drug [7, 12]: 1; KO2, O2 concentration for half-maximum prodrug activation [7, 12]: 1.14; Kin, rate constant for transfer from the extracellular to the intracellular compartment [7, 13]: 10 min⁻¹; Kout, rate constant for transfer from the intracellular to the extracellular compartment [7, 13]: 10 min⁻¹; sensitivity of activator cell lines (clonogenic survival) [8]: marked increases in the sensitivity; Half-life, non-enzymatic loss in culture medium ([9]; 37 °C): 1000 days; F2, proportion of O2-dependent metabolism of the drug [9]: 1; Hill parameter n [9]: 1.7; KO2, O2 concentration for half-maximum prodrug activation [9]: 1.14; Kc, intrinsic cytotoxic potency of the prodrug [9]: 1800 M⁻¹ s⁻¹; Kin, rate constant for transfer from the extracellular to the intracellular compartment [9]: 10 min⁻¹; Kout, rate constant for transfer from the intracellular to the extracellular compartment [9]: 10 min⁻¹; Activator Kmet,0, rate constant for the maximum rate of metabolism in activator cells under anoxia ([9]; POR-R activators, adjusted to optimize monolayer fits): 14 min⁻¹; Target Kmet,0, rate constant for the maximum rate of metabolism in target cells under anoxia ([9]; PORko-G targets, adjusted to optimize monolayer fits): 1.3 min⁻¹; net diffusion through anoxic MCLs [10]: lowered by increasing proportions of activator cells; bystander effect [11]: trivially small; killing of target cells as proportion of activators increases [11]: increasing proportions of POR-R activators reduced killing of PORko-G targets
27 | CS(=O)(=O)OCCN(CCBr)c1ccc([N+](=O)[O-])c(C(=O)NCC(O)CO)c1[N+](=O)[O-] (stereo not shown) [VI Br OSO2CH3 CH2CHOHCH2OH] | -0.373 | –
28 | O=C(NCCCO)c1cc(N(CCCl)CCCl)c([N+](=O)[O-])cc1[N+](=O)[O-] [I Cl Cl (CH2)3OH] | 1.49 | –
29 | O=C(NCCO)c1cc(N(CCBr)CCBr)c([N+](=O)[O-])cc1[N+](=O)[O-] [I Br Br CH2CH2OH] | 1.69 | –
30 | CS(=O)(=O)OCCN(CCOS(C)(=O)=O)c1cc(C(N)=O)c([N+](=O)[O-])cc1[N+](=O)[O-] [I OSO2CH3 OSO2CH3 H] | -0.701 | –
31 | CS(=O)(=O)OCCN(CCCl)c1cc(C(N)=O)c([N+](=O)[O-])cc1[N+](=O)[O-] [I Cl OSO2CH3 H] | 0.425 | –
32 | NC(=O)c1cc(N(CCCl)CCCl)c([N+](=O)[O-])cc1[N+](=O)[O-] [I Cl Cl H] | 1.515 | –
33 | O=C(NCCO)c1cc([N+](=O)[O-])cc([N+](=O)[O-])c1N(CCCl)CCCl [IV Cl Cl CH2CH2OH] | 1.92 | –
34 | NC(=O)c1cc(NO)cc([N+](=O)[O-])c1N(CCO)CCO [V OH OH H] | -1.36 | –
35 | CS(=O)(=O)OCCN(CCBr)c1c(C(=O)NCC(O)CO)cc([N+](=O)[O-])cc1[N+](=O)[O-] (stereo not shown) [IV Br OSO2CH3 CH2CHOHCH2OH] | 0.589 | –
36 | O=C(NCC(O)CO)c1cc(N(CCI)CCI)c([N+](=O)[O-])cc1[N+](=O)[O-] (stereo not shown) [I Iodo Iodo CH2CHOHCH2OH] | 1.79 | –
37 | NC(=O)c1cc(N(CCOS(N)(=O)=O)CCOS(N)(=O)=O)c([N+](=O)[O-])cc1[N+](=O)[O-] [I OSO2NH2 OSO2NH2 H] | -0.95 | –
38 | O=C(NCCN1CCOCC1)c1cc(N(CCCl)CCCl)c([N+](=O)[O-])cc1[N+](=O)[O-] [I Cl Cl CH2CH2-Nmorp] | 1.6 | –
39 | NC(=O)c1c([N+](=O)[O-])ccc(N(CCCl)CCCl)c1[N+](=O)[O-] [VI Cl Cl H] | 1.41 | –
40 | O=C(NCC(O)CO)c1c([N+](=O)[O-])ccc(N(CCBr)CCBr)c1[N+](=O)[O-] (stereo not shown) [VI Br Br CH2CHOHCH2OH] | 1.04 | –
41 | O=C(NO)c1cc(N(CCCl)CCCl)c([N+](=O)[O-])cc1[N+](=O)[O-] [I Cl Cl OH] | 1.22 | –
42 | CS(=O)(=O)c1cc([N+](=O)[O-])c(C(N)=O)cc1N(CCBr)CCBr [II Br Br H] | 1.18 | –
43 | O=C(NCC(O)CO)c1cc([N+](=O)[O-])cc([N+](=O)[O-])c1N(CCBr)CCBr (stereo not shown) [IV Br Br CH2CHOHCH2OH] | 1.83 | –
